{
  "source": "patent US7906520B2",
  "about": "“Methods for treating pain” (The General Hospital Corporation, priority 2003, dated 2011)",
  "key": {"[1]": {"test_system": "SNI model", "assay": "SNI model, L-NAME versus DAHP", "format": "in vivo", "procedure": "In this figure, closed circles represent nNOS knockout mice with DAHP; open circles, nNOS knock out mice with vehicle; closed triangles, wild type mice with DAHP; and open triangles, wild type mice with vehicle. […] In this figure, closed triangles represent L-NAME administration; open circles, L-NAME+DAHP administration; closed circles, DAHP administration; and open triangles, vehicle administration. L-NAME was administered at 25 mg/kg, i.p., single dose, and DAHP was administered at 120 mg/kg, i.p., single dose. The antinociceptive efficacy of this high L-NAME dose is weaker (about 50%) than that of a moderate dose of DAHP."}, "[2]": {"test_system": "sepiapterin reductase", "settings": "cited from earlier work"}, "[3]": {"test_system": "SNI model of neuropathic pain", "assay": "Spared nerve injury (SNI) model of neuropathic pain, von Frey and acetone tests", "format": "in vivo", "procedure": "FIGS. 8A-8D represent a series of graphs showing the effect of DAHP on nociceptive behavior in the SNI model of neuropathic pain. Figures on the left show the threshold to mechanical stimuli applied with von Frey hairs (von Frey threshold). Figures on the right show the duration of paw licking, shaking and lifting following acetone application to the paw as a measure for cold allodynia. In FIG. 8A, rats were treated with DAHP (180 mg/kg/d i.p.) for three days starting three days after surgery (early treatment). Nociceptive behavior was assessed daily before and after drug injection. In FIG. 8B, the treatment period was extended to five days (180 mg/kg/d i.p.) starting three days after surgery and pain behavior was assessed daily before and after drug injection and once every second day for an additional week after stopping the daily drug injections. In FIG. 8C, treatment with DAHP (180 mg/kg/d i.p. for 5 days) was started 17 days after surgery i.e. in the chronic phase without any treatment in the early phase. Nociceptive behavior was assessed once daily 3 h after drug injection. In FIG. 8D, animals received a continuous spinal infusion of DAHP (6 mg/kg/d) for 14 days. The infusion was started directly after surgery. Nociceptive behavior was assessed once daily.\nFIGS. 16A-16D show the effects of systemic (16A) and intrathecal (16B) treatment with methotrexate (MTX) on the nociceptive behavior in the SNI model of neuropathic pain. […] In FIG. 16A MTX (0.2 mg/kg/d) was injected i.p. once daily starting 5 days after SNI surgery. Nociceptive behavior was assessed once daily three hours after drug injection. In FIG. 16B, MTX was administered as continuous intrathecal infusion (0.1 mg/kg/d for 14 days) starting right after SNI surgery. Nociceptive behavior was assessed once daily. FIGS. 16C and 16D show the body weight gain of animals during systemic (16C) and intrathecal (16D) MTX treatment. Determination of the weight gain was used to assess general well-being and potential toxic effects of MTX.\nIn this graph, closed triangles represent vehicle, i.p.; open triangles represent DAHP at 90 mg/kg/day, i.p.; open squares represent DAHP at 180 mg/kg/day, i.p.; and open circles represent DAHP at 270 mg/kg/day, i.p.\nAll procedures were performed in accordance with Massachusetts General Hospital animal care regulations. Adult male Sprague Dawley rats (200-300 g) were anesthetized with halothane. For the sciatic nerve transection (axotomy), the left sciatic nerve was exposed at the mid thigh level, ligated with 3/0 silk, and sectioned distally. The wound was sutured in two layers, and the animals were allowed to recover. For SNI the tibial and peroneal branch of the sciatic nerve were ligated and transected whereas the sural nerve was spared. For CCI, the sciatic nerve was loosely ligated with dexon 4/0 (three ligatures) and for the spinal ligation model the L5 spinal segmental nerve was ligated."}, "[4]": {"settings": "systemically administered, low doses; cited from earlier work"}, "[5]": {"test_system": "CFA-induced paw inflammation", "assay": "CFA model of inflammatory pain: Hargreaves test and paw weight", "format": "in vivo, rat", "settings": "NAS 50 mg/kg i.p.", "procedure": "FIGS. 11A-11E are a series of graphs showing the effect of DHAP on thermal hyperalgesia in the CFA model which is a model for inflammatory pain. […] On the left end of the graph, two doses of DAHP (180 mg/kg i.p.) were injected, the first 30 minutes before injection of CFA into the hindpaw, the second 4 hours after CFA (indicated with arrows D1 and D2). On the right, a single dose (dotted arrow D1) of DAHP (180 mg/kg i.p.) was injected 24 h after induction of paw inflammation without any treatment during the first 24 h following CFA injection. […] In FIGS. 11C-11D, the effects of systemically administered DAHP (180 mg/kg i.p. single dose; 11C) are compared with the effects of a single intrathecal dose (1 mg/kg i.t.; 11D) which was administered via a lumbar spinal catheter. In both cases, treatment was started 24 hours after CFA injection into the hindpaw. Because of slightly different baseline levels (11C compared with 11D) effects of DAHP after i.p. and i.t. treatment are additionally presented as percentage change of paw withdrawal latency (FIG. 11E) to allow for a direct comparison of both routes of administration.\nFIG. 12 is a bar graph showing the increase of the paw weight of the inflamed paw compared with the contralateral paw. Paw weight was determined 48 hours following CFA injection. The increase of the paw weight is a measure for the inflammatory paw edema and therefore allows assessment of paw inflammation.\nFIGS. 15A and 15B show the effect of the sepiapterin reductase inhibitor, N-acetyl-serotonin (NAS) on thermal hyperalgesia in the CFA model. The paw withdrawal latency (PWL) to radiant heat (Hargreaves test) is a measure for the heat sensitivity. NAS treatment (single dose of 50 mg/kg i.p.) was started 24 hours after CFA injection into the hindpaw. Data are presented as percentage change of the PWL compared with the PWL of the non-inflamed contralateral paw. […] Paw weight was determined 48 hours following CFA injection. The increase of the paw weight is a measure for the inflammatory paw edema.\nHypersensitivity was induced using the CFA model of paw inflammation. In these experiments, BH4 was injected at time “zero” after measurement of baseline paw withdrawal latency."}, "[6]": {"test_system": "GTP cyclohydrolase I", "settings": "cited from earlier work; for potency as GTP cyclohydrolase I inhibitor relative to oxidized pterins: more potent than oxidized pterins; for Ki: read-out: Ki, noncompetitive inhibitor of GTP cyclohydrolase I"}},
  "data": [
    {"smiles": "COC(=O)[C@@H](N)CCCNC(=N)N[N+](=O)[O-]", "note": "[L-NAME, N^G-Nitro-L-arginine-methyl ester]", "values": [
      {"measurement": "effect of L-NAME co-injection on efficacy of DAHP", "setting": "[1]; L-NAME 25 mg/kg i.p. + DAHP 120 mg/kg i.p.", "value": "does not further increase the efficacy of DAHP"},
      {"measurement": "antinociceptive efficacy relative to a moderate dose of DAHP", "setting": "[1]; L-NAME 25 mg/kg i.p. single dose, weaker than DAHP", "value": "about 50%"}
    ]},
    {"smiles": "COCC(=O)NCCc1c[nH]c2ccc(O)cc12", "note": "[N-Methoxyacetylserotonin]", "values": [
      {"measurement": "potency as sepiapterin reductase inhibitor relative to NAS", "setting": "[2]", "value": "increased potency"}
    ]},
    {"smiles": "CN(Cc1cnc2nc(N)nc(N)c2n1)c1ccc(C(=O)N[C@@H](CCC(=O)O)C(=O)O)cc1", "note": "[methotrexate]", "values": [
      {"measurement": "pain in response to mechanical and cold allodynia", "setting": "[3]; MTX 0.2 mg/kg/d i.p. or 0.1 mg/kg/day continuous lumbar spinal delivery", "value": "reduction in pain"},
      {"measurement": "acute toxicity (body weight change over time)", "setting": "[3]; MTX systemic or intrathecal", "value": "absence of detectable acute toxicity"},
      {"measurement": "blood brain barrier penetration", "setting": "[4]", "value": "does not penetrate the blood brain barrier"}
    ]},
    {"smiles": "O=C(CCl)NCCc1c[nH]c2ccc(O)cc12", "note": "[N-Chloroacetylserotonin]", "values": [
      {"measurement": "potency as sepiapterin reductase inhibitor relative to NAS", "setting": "[2]", "value": "increased potency"}
    ]},
    {"smiles": "CC(=O)NCCc1c[nH]c2ccc(O)cc12", "note": "[NAS, N-acetyl-serotonin]", "values": [
      {"measurement": "CFA-induced inflammatory paw edema", "setting": "[5]", "value": "no effect"},
      {"measurement": "thermal hyperalgesia", "setting": "[5]; 24 hours after CFA", "value": "reduction of thermal hyperalgesia"}
    ]},
    {"smiles": "Nc1nc2nc[nH]c2c(=O)[nH]1", "note": "[guanine]", "values": [
      {"measurement": "GTPCH inhibitory potency relative to DAHP", "setting": "[6]; higher potency than DAHP", "value": "approximately 10 fold"}
    ]},
    {"smiles": "C[C@H](O)C(=O)C1=Nc2c(nc(N)[nH]c2=O)NC1", "note": "[L-Sepiapterin]", "values": [
      {"measurement": "potency as GTP cyclohydrolase I inhibitor relative to oxidized pterins", "setting": "[6]", "value": 12, "unit": "times"},
      {"measurement": "IC50", "setting": "[6]; read-out: IC50, GTP cyclohydrolase I inhibitor", "value": "12.7 ± 1.8", "unit": "µM"}
    ]},
    {"smiles": "C[C@H](O)[C@H](O)C1=Nc2c(nc(N)[nH]c2=O)NC1", "note": "[7,8-dihydro-L-Biopterin]", "values": [
      {"measurement": "potency as GTP cyclohydrolase I inhibitor relative to oxidized pterins", "setting": "[6]", "value": "approximately 12 times"},
      {"measurement": "Ki", "setting": "[6]", "value": 14.4, "unit": "µM"}
    ]},
    {"smiles": "O=C(CCl)NCCc1ccc(O)c(O)c1", "note": "[N-Chloroacetyldopamine]", "values": [
      {"measurement": "potency as sepiapterin reductase inhibitor relative to NAS", "setting": "[2]", "value": "increased potency"}
    ]},
    {"smiles": "C[C@H](O)[C@H](O)[C@@H]1CNc2nc(N)[nH]c(=O)c2N1", "note": "[6S-BH4]", "values": [
      {"measurement": "effectiveness relative to BH4", "setting": "[6]; feedback inhibition of GTPCH", "value": "more than one order of magnitude less effective"}
    ]},
    {"smiles": "C[C@H](O)[C@H](O)[C@H]1CNc2nc(N)[nH]c(=O)c2N1", "note": "[Tetrahydro-L-biopterin]", "values": [
      {"measurement": "Ki", "setting": "[6]", "value": 15.7, "unit": "µM"}
    ]}
  ]
}
